The values below come from patent US11731941B2 (Exelixis, Inc., priority 2017, dated 2023).

Values after ≈ are worked out from the molar mass of the structure shown. Counter-ions that a name gives are not always drawn.

Data set [1] in a line: initial development experiments (BCS classification, solubility, permeability). To be noted: free base. The class given is physicochemical.
Data set [2] can be described thus: humidity stress at 40° C./75% relative humidity. In kind it is physicochemical. The note with it: about 7 days.
Data set [3] is described as follows: aqueous equilibrium solubility by HPLC. The class given is physicochemical. The note with it: for pH of the solubility solution: checked with pH paper; for solubility compared to malate salt of Compound 1: comparison in words; for aqueous solubility: distilled water, ambient temperature (about 25° C.), 24 hours, HPLC. Here is the method: The HPLC method used to determine aqueous equilibrium solubility is outlined in Table 32.
HPLC solubility determination about 5 mg of each salt was added to a vial with distilled water (1 mL). These were stirred at ambient temperature (about 25° C.) for 24 hours. The solution was isolated by filtration through a 0.2 μm PTFE filter and was analyzed by HPLC for concentration. The pH of the solutions was checked with pH paper.

A short description of data set [4]: Dynamic Vapor Sorption (DVS) hygroscopicity. The note with it: for XRPD analysis of the post DVS sample: physical form after DVS cycle; for hygroscopicity, European Pharmacopoeia classification: weight increase at 80% RH (25° C.). The class given is physicochemical. Here is the method:
As used herein “the European Pharmacopoeia classification” is a system whereby a chemical Compound 1s classified based on hygroscopicity. The classification is determined according to Table 2: [table] Dynamic Vapor Sorption (DVS) was performed using a Hiden Analytical Instruments IGAsorp Vapor Sorption Balance. Approximately 30 mg of sample was placed into a wire mesh vapor sorption balance pan, loaded into the IGAsorp vapor sorption balance, and held at 25° C.±0.1° C. The sample was subjected to a step profile from 0 to 90% RH at 10% increments, followed by desorption from […] to 0% RH at 10% increments. The equilibrium criterion was set to 99.0% step completion within a minimum of 60 minutes and a maximum of 5 hours for each increment. The weight change during the sorption cycle was monitored, allowing for the hygroscopic nature of the sample to be determined. The data collection interval was in seconds.

The conditions of data set [5]: both forms of Compound 1 (S)-malate; comparison value, source not stated; cited from earlier work.
[6] abbreviates: listed as Compound 1 isethionate monohydrate.

For `COc1cc2nccc(Oc3ccc(NC(=O)C4(C(=O)Nc5ccc(F)cc5)CC4)cc3)c2cc1OC` [Compound 1, N-{4-[(6,7-dimethoxyquinolin-4-yl)oxy]phenyl}-N′-(4-fluorophenyl) cyclopropane-1,1-dicarboxamide], in data set [1], the BCS class entry is given as “BCS class II”. Besides, the “solubility” value in data set [1] (in water) is “low solubility”. In data set [2], the “% Weight Change” value is listed as −0.94% and the “XRPD after humidity stressing” value was “Form 1”.
Regarding `COc1cc2nccc(Oc3ccc(NC(=O)C4(C(=O)Nc5ccc(F)cc5)CC4)cc3)c2cc1OC` [Form 14, N-{4-[(6,7-dimethoxyquinolin-4-yl)oxy]phenyl}-N′-(4-fluorophenyl) cyclopropane-1,1-dicarboxamide], in data set [3] (listed as Compound 1 pyruvate), the “pH of the solubility solution” value is listed as “about 3”, the “solubility compared to malate salt of Compound 1” value was “higher solubility” and the aqueous solubility result is “about 0.133 mg/mL”. Besides, the “total weight gain between 0% RH and 80% RH” value in data set [4] (DVS, 25° C., listed as Compound 1 pyruvate) was found to be 0.10 % w/w. Further, the “XRPD analysis of the post DVS sample” value in data set [4] is “remained unchanged”. In data set [4] (listed as Compound 1 pyruvate), the “hygroscopicity, European Pharmacopoeia classification” value is “non-hygroscopic”.
As to `COc1cc2nccc(Oc3ccc(NC(=O)C4(C(=O)Nc5ccc(F)cc5)CC4)cc3)c2cc1OC` [Form 20, N-{4-[(6,7-dimethoxyquinolin-4-yl)oxy]phenyl}-N′-(4-fluorophenyl) cyclopropane-1,1-dicarboxamide], in data set [3] (listed as Compound 1 glutarate), the “pH of the solubility solution” value is on record as “about 3” and the aqueous solubility amounted to 16 µg/mL (≈ 31.9 µM). Further, the “total weight gain between 0% RH and 80% RH” value in data set [4] (DVS, 25° C., listed as Compound 1 glutarate) stood at 0.08 % w/w. Further, the “hygroscopicity, European Pharmacopoeia classification” value in data set [4] (listed as Compound 1 glutarate) is “non-hygroscopic”.
In the case of `COc1cc2nccc(Oc3ccc(NC(=O)C4(C(=O)Nc5ccc(F)cc5)CC4)cc3)c2cc1OC` [Form 3, N-{4-[(6,7-dimethoxyquinolin-4-yl)oxy]phenyl}-N′-(4-fluorophenyl) cyclopropane-1,1-dicarboxamide], in data set [2], the “XRPD after humidity stressing” value is “no form change” and the “weight loss after humidity stressing” value is 43.17%.
As to `COc1cc2nccc(Oc3ccc(NC(=O)C4(C(=O)Nc5ccc(F)cc5)CC4)cc3)c2cc1OC` [Compound 1 (S)-malate, S-malate salt of N-{4-[(6,7-dimethoxyquinolin-4-yl)oxy]phenyl}-N′-(4-fluorophenyl) cyclopropane-1,1-dicarboxamide], in data set [5], the “hygroscopicity weight gain of comparator” value was “about 0.4 % w/w”.
With `COc1cc2nccc(Oc3ccc(NC(=O)C4(C(=O)Nc5ccc(F)cc5)CC4)cc3)c2cc1OC` [Form 27, N-{4-[(6,7-dimethoxyquinolin-4-yl)oxy]phenyl}-N′-(4-fluorophenyl) cyclopropane-1,1-dicarboxamide], in data set [3] (setting [6]), the “pH of the solubility solution” value is “about 2”, the “solubility compared to malate salt of Compound 1” value is on record as “much higher solubility” and the aqueous solubility was 195 µg/mL (≈ 389 µM). Besides, in data set [4] (DVS isotherm, 1 mol. eq.), the “plateau of water content between 10-50% RH” value was “about 3.0±0.1 % w/w”. Also, in data set [4] (DVS, 25° C.), the “total weight gain between 20% RH and 80% RH” value is “about 2.4 % w/w”. Further, the “XRPD analysis of the post DVS sample” value in data set [4] was “remained unchanged”. For the same compound, in data set [4] (setting [6]), the “hygroscopicity, European Pharmacopoeia classification” value is “hygroscopic”.

One may read the aqueous solubility as the dissolved amount per volume that the medium holds. A low value points to little dissolved substance.
